Test results from US10124003B2, “Therapeutic agent for FGFR inhibitor-resistant cancer” (TAIHO PHARMACEUTICAL CO., LTD., priority 2013, dated 2018).
Where two headings read alike, the source gives them in different places.

How the values were obtained:
[1] = tested on: OCUM-2MD3 cells; test: Cell growth inhibition, OCUM-2MD3 parent cells (Test Example 7); format: cell-based, human; settings: OCUM-2MD3 parent cell
[2] = tested on: AZD4547 resistant OCUM-2MD3 cells; test: Cell growth inhibition, AZD4547 resistant OCUM-2MD3 cells (Test Example 7); format: cell-based, human
[3] = target: purified recombinant human FGFR2 protein (Homo sapiens (Human), UniProt P21802); test: Inhibitory effect on FGFR2 kinase activity (Test Example 1); format: biochemical; settings: ATP 75 μM
Sequence of purified recombinant human FGFR2 protein (P21802 22-821): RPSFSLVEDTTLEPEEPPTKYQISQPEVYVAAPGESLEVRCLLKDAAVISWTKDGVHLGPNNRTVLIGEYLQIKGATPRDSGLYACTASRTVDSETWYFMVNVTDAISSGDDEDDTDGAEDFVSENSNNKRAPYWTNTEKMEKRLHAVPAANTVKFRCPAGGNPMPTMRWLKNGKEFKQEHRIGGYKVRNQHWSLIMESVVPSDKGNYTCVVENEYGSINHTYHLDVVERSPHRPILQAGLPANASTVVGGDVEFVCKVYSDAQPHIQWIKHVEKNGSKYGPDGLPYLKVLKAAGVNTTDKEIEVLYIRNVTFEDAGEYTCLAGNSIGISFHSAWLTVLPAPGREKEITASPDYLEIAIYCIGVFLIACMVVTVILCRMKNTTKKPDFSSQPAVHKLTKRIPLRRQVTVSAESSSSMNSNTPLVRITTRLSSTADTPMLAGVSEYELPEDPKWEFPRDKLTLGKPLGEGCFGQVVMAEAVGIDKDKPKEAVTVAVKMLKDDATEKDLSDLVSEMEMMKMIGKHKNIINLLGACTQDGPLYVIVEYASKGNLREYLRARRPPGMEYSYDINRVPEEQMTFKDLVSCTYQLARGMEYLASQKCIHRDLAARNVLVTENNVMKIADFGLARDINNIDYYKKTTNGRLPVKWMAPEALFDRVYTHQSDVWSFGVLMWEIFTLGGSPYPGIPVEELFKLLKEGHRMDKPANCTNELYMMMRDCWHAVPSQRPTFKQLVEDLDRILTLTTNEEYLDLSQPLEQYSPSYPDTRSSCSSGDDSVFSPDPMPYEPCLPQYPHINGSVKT
Description: EDTA (final concentration: 30 mM) diluted with a separation buffer (Caliper Life Sciences, Inc.) was added thereto to terminate the kinase reaction. […] The level of phosphorylation was determined from the quantitative ratio.

[4] = tested on: OCUM-2MD3 cells; settings: Homo sapiens, OCUM-2MD3, 72 h
Description: Human-derived gastric cancer OCUM-2MD3 cells, which overexpressed FGFR2, were subcultured daily in a Dulbecco's modified Eagle's medium (DMEM) containing 10% fetal bovine serum (FBS) at a cell density of not more than 80%. In order to initiate a test of the cell growth-inhibitory effect of the compounds, the OCUM-2MD3 cells were suspended in the above DMEM medium and seeded in a 96-well flat-bottom plate so that each well contained 3,000 cells. Then, the cells were cultured in an incubator containing 5% carbon dioxide gas at 37° C. for one day. […] The DMSO solution of the test compound was diluted with the medium used for cultivation, and the diluted solution was added to each well of the cell culture plate so that the final concentration of DMSO became 0.5%. Then, the cells were cultured in an incubator containing 5% carbon dioxide gas at 37° C. for 72 hours. The number of cells was measured at the time of the addition of the test compound and 72 hours later after culture by using a Cell Counting Kit-8 (produced by Dojindo Laboratories) according to a protocol recommended by Dojindo Laboratories. […] After completion of the reaction, the absorbance at a wavelength of 450 nm was measured by a microplate reader. […]
T: absorbance of well to which test compound was added
C: absorbance of well to which test compound was not added
C0: absorbance of well measured before addition of compound

SMILES	IC50 [3] [nM]	GI50 [4] [nM]	also measured
CCN1CCN(c2ccc(Nc3cc(N(C)C(=O)Nc4c(Cl)c(OC)cc(OC)c4Cl)ncn3)cc2)CC1 [BGJ398]			IC50 ([1]; Homo sapiens): 7.6 nM; IC50 ([2]; Homo sapiens, OCUM-2MD3, read-out: Cell growth inhibition, IC50 (nM) AZD4547 resistant cells): 55.6 nM
COc1cc(CCc2cc(NC(=O)c3ccc(N4CC(C)NC(C)C4)cc3)n[nH]2)cc(OC)c1 (centres unmarked) [AZD4547]			IC50 [1]: 6.1 nM; IC50 ([2]; read-out: Cell growth inhibition, IC50 (nM) AZD4547 resistant cells, AZD4547 resistant OCUM-2MD3 cells, range in brackets): 159 nM
CC(C)c1cc(C#Cc2nn([C@H]3CCN(C(=O)/C=C/CN(C)C)C3)c3ncnc(N)c23)cc(C(C)C)c1 [Ref. Ex. Compound 4, (S)-1-(3-(4-amino-3-((3,5-diisopropylphenyl)ethynyl)-1H-pyrazolo[3,4-d]pyrimidin-1-yl)pyrrolidin-1-yl)-4-(dimethylamino)but-2-en-1-one]	> 10000		
C=CC(=O)N1C[C@@H](n2cc(C#Cc3cc(OC)cc(OC)c3)c3c(N)ncnc32)C[C@H]1C(=O)OC [Ex. Compound 66, (2S,4S)-methyl 1-acryloyl-4-(4-amino-5-((3,5-dimethoxyphenyl)ethynyl)-7H-pyrrolo[2,3-d]pyrimidin-7-yl)pyrrolidine-2-carboxylate]	< 0.3	< 4.6	
CCOc1cc(C#Cc2nn(C3CN(C(=O)/C=C/CN(C)C)C3)c3ncnc(N)c23)cc(OCC)c1 [Ex. Compound 25, 1-(3-(4-amino-3-((3,5-diethoxyphenyl)ethynyl)-1H-pyrazolo[3,4-d]pyrimidin-1-yl)azetidin-1-yl)-4-(dimethylamino)but-2-en-1-one]		13	
